The text below walks through data of patent US7626044B2, “Triptolide derivatives and their uses” (priority 2002, dated 2009).

Series [1] concerns DNFB-induced mouse DTH response. In words: DNFB-induced mouse delayed type hypersensitivity response (DTH). It is filed as in vivo. Particulars: Table 8, i.p., Balb/c mice, dosage 1000 (mg/kg). Here is the method: Female Balb/c mice (age of 6-8 wk) were randomly divided into groups and immunized with 20 μl 0.5% DNFB solution in absolute acetone-olive oil (4:1) on each hind foot on day 0 and 1;
7-9 days after the initial immunization, mice were boosted with 10 μl 0.4% DNFB on both sides of the left ear, whereas the right ear was treated with vehicle alone;
Compounds were administered intraperitoneally (i.p.) or orally (p.o.) to the mice 1 h before DNFB booster immunization and 12 h later.
Ear swelling and other indexes were assessed 24-48 h after booster immunization.
Note: Female ICR mice (age of 6-8 wk) were immunized with 0.7% DNFB solution and boosted with 0.6% DNFB solution.

Series [2] deals with anti-SRBC specific antibodies production by B lymphocytes. It is filed as in vivo, mouse. To be noted: Table 12, positive control given i.p., ICR mice, dosage 4 mg/kg.
Another series concerns T lymphocyte. Description: ConA induced T-lymphocyte proliferation ([3H]thymidine). It is filed as cell-based, mouse. To be noted: control 125789. Here is the method:
(§1) Mice were sacrificed by cervical dislocation, and spleens were collected under sterile conditions then teased through a nylon mesh. Erythrocytes were lysed. Cells were washed and resuspended at 5×10^6/ml in RPMI-1640 media containing 10% FBS. For one 96 well plate assay, 100 pt of cells, 50 μl of sample and 50 μl of ConA/LPS were added into each well with the final volume 200 μl. The control wells were set up with 50 μl of RPMI-1640 media instead of ConA/LPS.
(§2) Plates were incubated for 48 h (ConA) or 60 h (LPS), respectively, at 37° C., 5% CO2 in a humidified incubator. In the last 8 h of incubation, 25 μl (1.9×10^10 Bq) of [^3H]thymidine was added. After plates were incubated for 48 h, the plates (ConA) were stored at −20° C., then after another 12 h, the plates (LPS) were stored at −20° C.
(§3) At the end of incubation, pulsed cells were harvested on a glass filter using a cell harvester ([…]96®, TOMTEC) and allowed to dry. Incorporation of radioactive thymidine was determined by using liquid Scintillation and Luminescence Counters (MicroBeta Trilux®, PerkinElmer).

For another series, the system named is B lymphocyte. In words: LPS induced B-lymphocyte proliferation ([3H]thymidine). It is filed as cell-based, mouse. Particulars: control 87373. The method, then:
as §1, §2, §3

The test system of another series is lymphocyte. In words: MTT cytotoxic assay. It is filed as cell-based, mouse. To be noted: control 0.337. The method, then: Mice were sacrificed by cervical dislocation, and spleens were collected under sterile conditions then teased through a nylon mesh. Erythrocytes were lysed. Cells were washed and resuspended at 5×10^6/ml in RPMI-1640 media supplemented with 10% FBS.
For one 96 well plate assay, 90 μl of cells, 45 μl of sample and 45 μl of RPMI-1640 media with 10% FBS were added into each well with the final volume 180 μl. The negative control wells (containing 90 μl of RPMI-1640 media with 10% FBS and 90 pt of cells), blank control (180 μl of RPMI-1640 media with 10% FBS) were also performed. Incubate plate for 48 hours at 37° C., 5% CO2 in a humidified incubator. 18 μl of MTT solution (5 mg/ml) was added for 6-7 h.
90 μl of MTT lysis solution was added to each well followed by a further incubation at 37° C. for 6-7 h. And the absorbance was measured at 570 nm using a plate reader.
For orientation: Tetrazolium assays rely on reduction of a dye to a coloured formazan, in cell work by metabolically active cells.

Consider `O=P1(N(CCCl)CCCl)NCCCO1` (stereo not drawn) [CTX, reference compound], for which the “Body weight after i.p.” value in series [1] (control 21.9) turned out to be 21.1 g. Further, the “Body weight before i.p.” value in series [1] (control 22.4) turned out to be 22.1 g. Moreover, the “Ear swelling X ± SD” value in series [1] (control 22.7 ± 2.1) worked out at 15.6 ± 8.1 mg. The compound further displayed a Right ear in series [1] (control 26.4) of 30.3 mg. This compound also displayed a Left ear in series [1] (control 49.1) of 45.9 mg. Also, the Spleen in series [1] (control 154.0) is recorded as 141.2 mg; in series [2] (control 55.7) it was 50.7 mg/10 g. Besides, the “QHS OD value” in series [2] (control 0.38) was determined as 0.12. This compound showed a C3 in series [2] (control 7.9) of 7.5 μg/10 μl. This compound came in with a Body weight in series [2] (control 23.4) of 22.6 g. For the same compound, the Thymus in series [2] (control 28.8) is reported as 28.2 mg. For the same compound, in series [2] (control 117), the “Total IgG” value is 101 μg/10 μl.
In the case of `CC(C)C12OC1C1OC13C1(OC1C1OC14C1=C(CCC43C)C(=O)OC1)C2O` [LLDT-20, (5R, 6S)-5,6-epoxytriptolide], the “Lymphocyte Proliferation (cpm) T cell” value in the series on T lymphocyte (10^−6 M) was 25344 cpm; in the series with T lymphocyte (10^−7 M) it was 54771 cpm; with T lymphocyte (10^−8 M) it was 69785 cpm. For the same compound, the results for the “Lymphocyte Proliferation (cpm) B cell” value in the series with B lymphocyte (10^−6 M), with B lymphocyte (10^−7 M) and with B lymphocyte (10^−8 M) were 63169 cpm, 85145 cpm and 78259 cpm, respectively. For the same compound, the “Cytotoxicity OD Value” in the series with lymphocyte (10^−6 M) was 0.263; in the series with lymphocyte (10^−7 M) it was 0.350; in the series with lymphocyte (10^−8 M) it was 0.374.
For `CC(C)C12OC1C1OC13C1(OC1C(O)C1(O)C4=C(CCC13C)C(=O)OC4)C2O` [LLDT-23, cis-(5R, 6S)-5,6-dihydroxy-14-epitriptolide], the results for the “Lymphocyte Proliferation (cpm) T cell” value in the series with T lymphocyte (10^−6 M), in the series on T lymphocyte (10^−7 M) and in the series with T lymphocyte (10^−8 M) were 55614 cpm, 104791 cpm and 84713 cpm, respectively. Also, the “Lymphocyte Proliferation (cpm) B cell” value was found to be 99672 cpm with B lymphocyte (10^−6 M), 86481 cpm in the series with B lymphocyte (10^−7 M) and 76993 cpm with B lymphocyte (10^−8 M). Moreover, the entries for the “Cytotoxicity OD Value” in the series with lymphocyte (10^−6 M), in the series on lymphocyte (10^−7 M) and in the series on lymphocyte (10^−8 M) were 0.302, 0.349 and 0.366, respectively.
As for `CC(C)[C@]12O[C@H]1[C@@H]1O[C@]13[C@]1(O[C@H]1C=C1C4=C(CC[C@@]13C)C(=O)OC4)[C@H]2O` [LLDT-19, Δ^5,6-dehydro-14-epitriptolide], the “Lymphocyte Proliferation (cpm) T cell” value worked out at 79418 cpm with T lymphocyte (10^−6 M), 71177 cpm in the series on T lymphocyte (10^−7 M) and 76183 cpm in the series with T lymphocyte (10^−8 M). Moreover, the “Lymphocyte Proliferation (cpm) B cell” value in the series with B lymphocyte (10^−6 M) is 82989 cpm; with B lymphocyte (10^−7 M) it was 70587 cpm; in the series on B lymphocyte (10^−8 M), 69690 cpm. In addition, the “Cytotoxicity OD Value” with lymphocyte (10^−6 M) came out at 0.340; with lymphocyte (10^−7 M), 0.340; in the series on lymphocyte (10^−8 M), 0.346.
On to `CC(C)[C@]12O[C@H]1[C@@H]1O[C@]13[C@]1(O[C@H]1[C@@H]1O[C@@]14C1=C(CC[C@]34C)C(=O)OC1)[C@H]2O` [LLDT-21, (5R, 6S)-5,6-epoxy-14-epitriptolide], for which the “Lymphocyte Proliferation (cpm) T cell” value in the series on T lymphocyte (10^−6 M) came out at 97217 cpm; with T lymphocyte (10^−7 M), 73513 cpm; in the series on T lymphocyte (10^−8 M) it was 83465 cpm. Further, the figures for the “Lymphocyte Proliferation (cpm) B cell” value in the series on B lymphocyte (10^−6 M), with B lymphocyte (10^−7 M) and with B lymphocyte (10^−8 M) were 86610 cpm, 75766 cpm and 76181 cpm, respectively. The “Cytotoxicity OD Value” is listed as 0.361 with lymphocyte (10^−6 M), 0.332 with lymphocyte (10^−7 M) and 0.359 in the series on lymphocyte (10^−8 M).
As for `CC(C)C12OC1C1OC13C1(OC1C(O)C1(O)C4=C(CCC13C)C(=O)OC4)C2O` [LLDT-22, cis-(5R, 6S)-5,6-dihydroxytriptolide], the “Lymphocyte Proliferation (cpm) T cell” value in the series with T lymphocyte (10^−6 M) turned out to be 2662 cpm; with T lymphocyte (10^−7 M) it was 68787 cpm; in the series with T lymphocyte (10^−8 M), 64367 cpm. For the same compound, the “Lymphocyte Proliferation (cpm) B cell” value in the series on B lymphocyte (10^−6 M) is 16807 cpm; in the series with B lymphocyte (10^−7 M), 89706 cpm; in the series with B lymphocyte (10^−8 M) it was 84748 cpm. Besides, the “Cytotoxicity OD Value” in the series on lymphocyte (10^−6 M) turned out to be 0.157; in the series on lymphocyte (10^−7 M) it was 0.345; in the series with lymphocyte (10^−8 M), 0.374.
